Common to all, as to assay type: functional
The target of experiment [1] is T1, Muscarinic acetylcholine receptor M4 (Homo sapiens, UniProt P08173).
T1 sequence (P08173 whole entry): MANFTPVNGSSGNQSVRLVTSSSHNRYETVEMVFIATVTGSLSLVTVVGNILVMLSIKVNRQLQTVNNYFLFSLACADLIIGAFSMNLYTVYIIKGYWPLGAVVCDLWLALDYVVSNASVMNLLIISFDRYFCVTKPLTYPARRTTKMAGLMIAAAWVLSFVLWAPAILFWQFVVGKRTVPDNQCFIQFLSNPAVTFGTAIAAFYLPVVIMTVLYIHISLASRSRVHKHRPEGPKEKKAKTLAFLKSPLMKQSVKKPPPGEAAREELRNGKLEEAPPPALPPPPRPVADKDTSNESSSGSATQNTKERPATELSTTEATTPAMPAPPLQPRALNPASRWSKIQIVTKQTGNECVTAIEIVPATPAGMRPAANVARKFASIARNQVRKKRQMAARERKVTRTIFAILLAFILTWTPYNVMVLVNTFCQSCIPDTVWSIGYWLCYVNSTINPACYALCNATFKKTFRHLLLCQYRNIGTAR
As to the kind of experiment: Agonist activity at muscarinic M4 receptor.

The target in experiment [2] is T2, Muscarinic acetylcholine receptor M3 (Homo sapiens, UniProt P20309). As to the kind of experiment: Agonist activity at muscarinic M3 receptor.
Target sequence in this assay (P20309 whole entry): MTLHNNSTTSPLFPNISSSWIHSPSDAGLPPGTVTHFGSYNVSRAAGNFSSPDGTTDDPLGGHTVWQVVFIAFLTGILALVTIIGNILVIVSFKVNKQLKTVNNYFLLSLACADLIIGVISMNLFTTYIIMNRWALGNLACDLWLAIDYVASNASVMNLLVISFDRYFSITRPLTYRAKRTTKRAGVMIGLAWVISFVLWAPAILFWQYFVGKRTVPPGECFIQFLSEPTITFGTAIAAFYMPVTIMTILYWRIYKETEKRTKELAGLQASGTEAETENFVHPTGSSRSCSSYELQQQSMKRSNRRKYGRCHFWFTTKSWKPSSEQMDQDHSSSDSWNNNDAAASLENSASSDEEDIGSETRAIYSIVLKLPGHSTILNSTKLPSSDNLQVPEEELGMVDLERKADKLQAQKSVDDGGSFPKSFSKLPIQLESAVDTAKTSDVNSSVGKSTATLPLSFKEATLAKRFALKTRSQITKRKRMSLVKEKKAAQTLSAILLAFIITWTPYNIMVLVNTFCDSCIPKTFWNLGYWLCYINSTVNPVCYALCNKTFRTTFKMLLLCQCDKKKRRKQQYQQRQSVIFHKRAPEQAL
In experiment [3] the target is T3, Muscarinic acetylcholine receptor M2 (Homo sapiens, UniProt P08172).
T3 sequence (P08172 whole entry): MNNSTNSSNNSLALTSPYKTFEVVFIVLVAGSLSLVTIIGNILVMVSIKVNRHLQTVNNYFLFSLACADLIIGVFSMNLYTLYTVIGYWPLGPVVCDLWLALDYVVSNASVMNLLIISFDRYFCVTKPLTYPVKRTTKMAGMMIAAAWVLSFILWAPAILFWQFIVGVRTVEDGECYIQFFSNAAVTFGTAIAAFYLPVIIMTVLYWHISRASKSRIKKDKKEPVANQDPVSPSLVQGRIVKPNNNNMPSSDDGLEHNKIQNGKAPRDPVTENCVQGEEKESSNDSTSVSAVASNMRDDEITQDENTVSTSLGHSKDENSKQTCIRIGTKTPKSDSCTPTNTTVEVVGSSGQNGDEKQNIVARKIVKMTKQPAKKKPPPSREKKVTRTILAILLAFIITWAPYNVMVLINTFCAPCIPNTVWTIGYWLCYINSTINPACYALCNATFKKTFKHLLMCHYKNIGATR
As to the kind of experiment: Agonist activity at muscarinic M2 receptor.

In experiment [4] the target is T4, Muscarinic acetylcholine receptor M1 (Homo sapiens) (UniProt P11229).
T4 sequence (whole entry): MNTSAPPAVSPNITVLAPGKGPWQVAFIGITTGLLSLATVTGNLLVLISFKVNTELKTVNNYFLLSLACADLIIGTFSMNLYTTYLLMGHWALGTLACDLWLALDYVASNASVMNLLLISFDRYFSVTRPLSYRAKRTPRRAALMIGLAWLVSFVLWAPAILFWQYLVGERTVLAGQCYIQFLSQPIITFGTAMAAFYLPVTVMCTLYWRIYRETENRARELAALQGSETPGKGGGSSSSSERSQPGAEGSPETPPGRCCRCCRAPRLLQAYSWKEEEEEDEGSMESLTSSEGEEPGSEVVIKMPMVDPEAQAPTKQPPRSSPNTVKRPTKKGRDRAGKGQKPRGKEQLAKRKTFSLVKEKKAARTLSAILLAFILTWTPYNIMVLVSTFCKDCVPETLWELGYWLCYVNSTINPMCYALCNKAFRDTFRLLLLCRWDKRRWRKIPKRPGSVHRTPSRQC
As to the kind of experiment: Agonist activity at muscarinic M1 receptor relative to carbachol.

Experiment [5] addresses T5, Muscarinic acetylcholine receptor M1 (Homo sapiens, UniProt P11229).
T5 sequence (P11229 whole entry): T4 sequence (whole entry)
In words: Agonist activity at muscarinic M1 receptor.

The target of experiment [6] is T6, Muscarinic acetylcholine receptor M4 (Homo sapiens) (UniProt P08173).
T6 sequence (whole entry): T1 sequence (P08173 whole entry)
In words: Agonist activity at muscarinic M4 receptor at up to 30 uM.

For experiment [7], the target named is T7, Muscarinic acetylcholine receptor M2 (Homo sapiens) (UniProt P08172).
T7 sequence (whole entry): T3 sequence (P08172 whole entry)
In words: Agonist activity at muscarinic M2 receptor at up to 30 uM.

For experiment [8], the target named is T8, Muscarinic acetylcholine receptor M5 (Homo sapiens) (UniProt P08912).
T8 sequence (whole entry): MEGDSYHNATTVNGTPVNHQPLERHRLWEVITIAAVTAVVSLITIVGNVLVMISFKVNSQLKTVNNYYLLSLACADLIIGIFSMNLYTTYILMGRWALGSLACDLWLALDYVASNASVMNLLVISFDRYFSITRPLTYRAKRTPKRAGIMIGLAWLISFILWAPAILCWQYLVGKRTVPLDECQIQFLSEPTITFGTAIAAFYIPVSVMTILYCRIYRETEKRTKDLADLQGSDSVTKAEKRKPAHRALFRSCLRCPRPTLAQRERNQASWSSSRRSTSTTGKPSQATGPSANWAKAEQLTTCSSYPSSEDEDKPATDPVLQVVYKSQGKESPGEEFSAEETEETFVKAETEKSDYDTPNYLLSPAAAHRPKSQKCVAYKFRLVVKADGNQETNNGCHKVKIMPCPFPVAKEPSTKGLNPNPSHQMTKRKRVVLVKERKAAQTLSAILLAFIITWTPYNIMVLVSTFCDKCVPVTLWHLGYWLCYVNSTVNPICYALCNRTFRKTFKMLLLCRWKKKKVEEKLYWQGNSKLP
In words: Agonist activity at muscarinic M5 receptor at up to 30 uM.

Experiment [9] concerns the target T2, Muscarinic acetylcholine receptor M3. As to the kind of experiment: Agonist activity at muscarinic M3 receptor at up to 30 uM.
Target sequence in this assay (P20309 whole entry, looked up): as the sequence (P20309 whole entry) above
Experiment [10] has as its target D(2) dopamine receptor (Homo sapiens, UniProt P14416). In words: Antagonist activity at dopamine D2 receptor.
For experiment [11], the target named is T9, Muscarinic acetylcholine receptor M5 (Homo sapiens, UniProt P08912).
T9 sequence (P08912 whole entry): T8 sequence (whole entry)
In words: Agonist activity at muscarinic M5 receptor.

In experiment [12] the target is T6, Muscarinic acetylcholine receptor M4 (Homo sapiens). As to the kind of experiment: Agonist activity at muscarinic M4 receptor relative to carbachol.
Experiment [13] has as its target T8, Muscarinic acetylcholine receptor M5 (Homo sapiens). As to the kind of experiment: Agonist activity at muscarinic M5 receptor relative to carbachol.
Experiment [14] deals with T7, Muscarinic acetylcholine receptor M2 (Homo sapiens). In words: Agonist activity at muscarinic M2 receptor relative to carbachol.

The source made the active and inactive calls. The calls are words filed in the database; no cut-off is given here. Some results are limits rather than exact numbers.

Sequence of D(2) dopamine receptor (P14416 whole entry): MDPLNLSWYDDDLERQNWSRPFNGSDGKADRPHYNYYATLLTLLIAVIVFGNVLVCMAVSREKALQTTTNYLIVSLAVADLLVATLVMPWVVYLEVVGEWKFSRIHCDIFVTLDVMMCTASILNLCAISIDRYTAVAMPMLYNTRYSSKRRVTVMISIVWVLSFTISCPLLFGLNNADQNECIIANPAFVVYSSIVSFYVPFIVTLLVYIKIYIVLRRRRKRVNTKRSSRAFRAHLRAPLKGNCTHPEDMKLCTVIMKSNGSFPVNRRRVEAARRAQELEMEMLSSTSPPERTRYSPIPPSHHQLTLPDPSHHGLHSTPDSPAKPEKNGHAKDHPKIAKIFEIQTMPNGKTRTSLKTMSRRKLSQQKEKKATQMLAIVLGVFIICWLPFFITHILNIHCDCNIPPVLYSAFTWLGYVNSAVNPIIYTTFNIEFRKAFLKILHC

As usually defined, the EC50 is the concentration giving half of the maximal effect. A low value points to higher potency in that assay. With `O=C(Nc1cccc(SC(F)(F)F)c1)N1CCC(N2CCC(n3c(=O)[nH]c4cc(Cl)ccc43)CC2)CC1`, the EC50 in [1] was greater than 30 µM; in experiment [2], greater than 30 µM; in [3], greater than 30 µM; in [5], 3600 nM. In addition, in experiment [4], the Activity is 90%.

On to `Cc1ccccc1C(=O)N1CCC(N2CCC(n3c(=O)[nH]c4cc(Cl)ccc43)CC2)CC1`, for which the result in experiment [6], in [7], in experiment [8] and in experiment [9] was inactive. In [4], this compound had an Activity of 56%. The compound also had an EC50 in [5] of 2710 nM.

Consider `Cc1cccc(C(=O)N2CCC(N3CCC(n4c(=O)[nH]c5ccccc54)CC3)CC2)c1`, for which the result in experiment [6], in experiment [7], in experiment [8] and in experiment [9] was inactive. The same compound registered an Activity in experiment [4] of 53%. The EC50 in experiment [5] came to 510 nM.

Regarding `O=c1[nH]c2c(F)cccc2n1C1CCN(C2CCN(S(=O)(=O)c3ccccc3)CC2)CC1`, the concentration for a half-maximal effect (EC50) in [1] is greater than 30 µM; in experiment [2], greater than 30 µM; in [3], greater than 30 µM; in [5], 2600 nM. Moreover, the Activity in [4] was found to be 49%.

Consider `O=C(c1ccccc1C(F)(F)F)N1CCC(N2CCC(n3c(=O)[nH]c4ccccc43)CC2)CC1`, for which the outcome in [6], in [7], in experiment [8] and in experiment [9] was inactive. In experiment [4], this compound registered an Activity of 32%. This compound yielded an EC50 in experiment [5] of 910 nM.

With `O=c1[nH]c2cc(Br)ccc2n1C1CCN(C2CCN(S(=O)(=O)c3ccccc3)CC2)CC1`, the EC50 in [1] is greater than 30 µM; in experiment [2], greater than 30 µM; in [3], greater than 30 µM; in [5], 4400 nM. In experiment [4], this compound gave an Activity of 81%.

Broadly, the IC50 is the point on the concentration scale where inhibition reaches its midpoint. In experiment [10], `O=c1[nH]c2ccc(F)cc2n1C1CCN(C2CCN(S(=O)(=O)c3ccccc3)CC2)CC1` returned an IC50 greater than 10 µM. Moreover, the concentration giving a half-maximal response (EC50) was greater than 30 µM in experiment [1]; greater than 30 µM in experiment [2]; greater than 30 µM in [3]; greater than 30 µM in [11]; 3300 nM in [5]. In experiment [4], the Activity worked out at 76%.

For `NC(=O)OCCN1CCC(N2CCC(n3c(=O)[nH]c4ccccc43)CC2)CC1`, the Activity in [12] was 96.9%; in experiment [13] it was 50.8%; in experiment [14] it was 80.6%. Besides, the EC50 was 0.0091 µM in experiment [1], 0.0119 µM in [3] and 0.0343 µM in experiment [11].

As for `O=C(c1cccc(Cl)c1)N1CCC(N2CCC(n3c(=O)[nH]c4ccccc43)CC2)CC1`, the result in [6], in [7], in [8] and in [9] was inactive. This compound had an Activity in [4] of 21%. In [5], this compound gave a concentration giving a half-maximal response (EC50) of 930 nM.

For the compound `O=C(Nc1cccc(SC(F)(F)F)c1)N1CCC(N2CCC(n3c(=O)[nH]c4ccc(F)cc43)CC2)CC1`, the half-maximal effective concentration (EC50) in [1] was greater than 30 µM; in experiment [2] it was greater than 30 µM; in experiment [3], greater than 30 µM; in experiment [5], 9600 nM. The same compound gave an Activity in experiment [4] of 72%.

Consider `O=c1[nH]c2ccccc2n1C1CCN(C2CCN(Cc3ccccc3C(F)(F)F)CC2)CC1`, for which the Activity in [4] stood at 80%.

`O=c1[nH]c2ccccc2n1C1CCN(C2CCN(S(=O)(=O)c3ccccc3)CC2)CC1` registered an Activity in experiment [4] of 82%. In [5], this compound gave an EC50 of 1400 nM.

On to `O=C(Nc1cccc(SC(F)(F)F)c1)N1CCC(N2CCC(n3c(=O)[nH]c4ccccc43)CC2)CC1`, for which the EC50 was greater than 30 µM in experiment [1], greater than 30 µM in [2], greater than 30 µM in experiment [3] and 6500 nM in [5]. For the same compound, the Activity in experiment [4] amounted to 85%.

On to `O=C(Nc1cccc(SC(F)(F)F)c1)N1CCC(N2CCC(n3c(=O)[nH]c4c(F)cccc43)CC2)CC1`, for which the EC50 was greater than 30 µM in experiment [1], greater than 30 µM in experiment [2], greater than 30 µM in experiment [3] and greater than 10000 nM in experiment [5]. Further, in [4], the Activity came to 46%.

In the case of `Cc1ccccc1CN1CCC(N2CCC(n3c(=O)[nH]c4ccccc43)CC2)CC1`, the IC50 in [10] was 5.1 µM. That is a single-digit micromolar value.

Regarding `O=c1[nH]c2cc(Cl)ccc2n1C1CCN(C2CCN(S(=O)(=O)c3ccccc3)CC2)CC1`, the half-maximal effective concentration (EC50) was greater than 30 µM in experiment [1], greater than 30 µM in experiment [2], greater than 30 µM in [3] and 4100 nM in experiment [5]. Also, the Activity in experiment [4] was 82%.

As to `Cc1ccccc1C(=O)N1CCC(N2CCC(n3c(=O)[nH]c4ccccc43)CC2)CC1`, the outcome in [6], in [7], in experiment [8] and in experiment [9] was inactive. Besides, the Activity in experiment [4] came to 60%. For the same compound, a half-maximal response in [5] (EC50) required 880 nM.

For the compound `Cc1cccc(C(=O)N2CCC(N3CCC(n4c(=O)[nH]c5cc(Cl)ccc54)CC3)CC2)c1`, the result in experiment [6], in experiment [7], in [8] and in experiment [9] was inactive. In experiment [4], this compound gave an Activity of 50%. This compound also registered an EC50 in experiment [5] of 2110 nM.

With `O=C(c1cccc(Cl)c1)N1CCC(N2CCC(n3c(=O)[nH]c4cc(Cl)ccc43)CC2)CC1`, the outcome in [6], in experiment [7], in experiment [8] and in experiment [9] was inactive. Moreover, the Activity in experiment [4] was 21%. In [5], this compound showed an EC50 of 7110 nM.

Consider `O=C(c1ccccc1C(F)(F)F)N1CCC(N2CCC(n3c(=O)[nH]c4cc(Cl)ccc43)CC2)CC1`, for which the outcome in experiment [6], in experiment [7], in experiment [8] and in experiment [9] was inactive. This compound also gave an Activity in experiment [4] of 24%. Moreover, a half-maximal effect in experiment [5] (EC50) was put at 11100 nM.

In experiment [10], `O=c1[nH]c2cc(F)ccc2n1C1CCN(C2CCN(S(=O)(=O)c3ccccc3)CC2)CC1` showed an IC50 of 3.6 µM. For the same compound, the EC50 was greater than 30 µM in experiment [1]; greater than 30 µM in [2]; greater than 30 µM in experiment [3]; greater than 30 µM in experiment [11]; 2300 nM in experiment [5]. For the same compound, in experiment [4], the Activity is 82%.

These data come from ChEMBL document CHEMBL1152245 (Bioorg Med Chem Lett, 2008).
